test system: kynurenine production in IFN-γ-treated KATO-III cells; experiment: Inhibitory activity on kynurenine production (Test Example 1); assay type: cell-based; details: Homo sapiens, IFN-γ treatment, culture for 96 hours, read-out: IC50 value, inhibition of kynurenine production
In short: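 KATO-III human gastric cancer cells (2,000/well, RPMI 1640 + 10% FBS) were cultured with compound and IFN-γ (31.25 ng/mL in the cell suspension), DMSO ≤0.1%, for 96 h at 37 °C, 5% CO2. Kynurenine was read at A480 after TCA at 65 °C and p-dimethylaminobenzaldehyde. Inhibition used IFN-γ-treated and untreated DMSO wells as references.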

Row | IC50 | SMILES
1 | < 1000 nM | Cc1ccc(C(Oc2nc3ccccc3nc2NS(=O)(=O)CC2CC2)C(F)(F)F)cn1 (stereo not drawn) [Compound 305, 1-cyclopropyl-N-{3-[2,2,2-trifluoro-1-(6-methylpyridin-3-yl)ethoxy]quinoxalin-2-yl}methanesulfonamide]
2 | < 1000 nM | Cc1ncc(C(Oc2nc3ccccc3nc2NS(=O)(=O)CC2CC2)C(F)(F)F)s1 (stereo not drawn) [Compound 306, 1-cyclopropyl-N-{3-[2,2,2-trifluoro-1-(2-methylthiazol-5-yl)ethoxy]quinoxalin-2-yl}methanesulfonamide]
3 | < 1000 nM | O=S(=O)(CC1CC1)Nc1nc2ccccc2nc1O[C@H](c1cccnc1)C(F)(F)F [Compound 307, (R)-1-cyclopropyl-N-{3-[2,2,2-trifluoro-1-(pyridin-3-yl)-ethoxy]quinoxalin-2-yl}methanesulfonamide]
4 | < 1000 nM | O=S(=O)(CC1CC1)Nc1nc2ccccc2nc1OC(c1ccc(Cl)nc1)C(F)(F)F (stereo not drawn) [Compound 308, 1-cyclopropyl-N-{3-[1-(6-chloropyridin-3-yl)-2,2,2-trifluoroethoxy]quinoxalin-2-yl}methanesulfonamide]
5 | < 1000 nM | N#Cc1cccc(C(Oc2nc3ccccc3nc2NS(=O)(=O)CC2CC2)C(F)(F)F)c1 (stereo not drawn) [Compound 309, 1-cyclopropyl-N-{3-[1-(3-cyanophenyl)-2,2,2-trifluoroethoxy]quinoxalin-2-yl}methanesulfonamide]
6 | < 1000 nM | CCCS(=O)(=O)Nc1nc2ccccc2nc1O[C@H](c1cccnc1)C(F)(F)F [Compound 312, (R)—N-{3-[2,2,2-trifluoro-1-(pyridin-3-yl)ethoxy]-quinoxalin-2-yl}propane-1-sulfonamide]
7 | 1000 to 10000 nM | CCCS(=O)(=O)Nc1nc2ccccc2nc1O[C@@H](c1cccnc1)C(F)(F)F [Compound 313, (S)—N-{3-[2,2,2-trifluoro-1-(pyridin-3-yl)ethoxy]-quinoxalin-2-yl}propane-1-sulfonamide]
8 | < 1000 nM | CCCNS(=O)(=O)Nc1nc2ccccc2nc1O[C@H](c1cccnc1)C(F)(F)F [Compound 314, (R)—N-propyl-N′-{3-[2,2,2-trifluoro-1-(pyridin-3-yl)-ethoxy]quinoxalin-2-yl}sulfuric diamide]
9 | < 1000 nM | CCCS(=O)(=O)Nc1nc2ccccc2nc1OC(c1cnc(C)s1)C(F)(F)F (stereo not drawn) [Compound 315, N-{3-[2,2,2-trifluoro-1-(2-methylthiazol-5-yl)ethoxy]-quinoxalin-2-yl}propane-1-sulfonamide]
10 | < 1000 nM | O=S(=O)(Nc1nc2ccccc2nc1O[C@H](c1cccnc1)C(F)(F)F)NC1CC1 [Compound 317, (R)—N-cyclopropyl-N′-{3-[2,2,2-trifluoro-1-(pyridin-3-yl)-ethoxy]quinoxalin-2-yl}sulfuric diamide]
11 | < 1000 nM | CCCS(=O)(=O)Nc1nc2ccccc2nc1O[C@H](c1ccc(C)nc1)C(F)(F)F [Compound 319, (R)—N-{3-[2,2,2-trifluoro-1-(6-methylpyridin-3-yl)ethoxy]-quinoxalin-2-yl}propane-1-sulfonamide]
12 | < 1000 nM | O=S(=O)(Nc1nc2ccccc2nc1OC(C(F)(F)F)C(F)(F)F)c1ccccc1Cl [Compound 321, 2-chloro-N-{3-[(1,1,1,3,3,3-hexafluoropropan-2-yl)oxy]-quinoxalin-2-yl}benzenesulfonamide]
13 | < 1000 nM | CCCS(=O)(=O)Nc1nc2ccccc2nc1OC(C(F)(F)F)C(F)(F)F [Compound 322, N-{3-[(1,1,1,3,3,3-hexafluoropropan-2-yl)oxy]quinoxalin-2-yl}propane-1-sulfonamide]
14 | < 1000 nM | CCCNS(=O)(=O)Nc1nc2ccccc2nc1OC(c1cnc(C)s1)C(F)(F)F (stereo not drawn) [Compound 323, N-propyl-N′-{3-[2,2,2-trifluoro-1-(2-methylthiazol-5-yl)-ethoxy]quinoxalin-2-yl}sulfuric diamide]
15 | < 1000 nM | Cc1ncc(C(Oc2nc3ccccc3nc2NS(=O)(=O)NC2CC2)C(F)(F)F)s1 (stereo not drawn) [Compound 324, N-cyclopropyl-N′-{3-[2,2,2-trifluoro-1-(2-methylthiazol-5-yl)ethoxy]quinoxalin-2-yl}sulfuric diamide]
16 | 1000 to 10000 nM | CCCS(=O)(=O)Nc1nc2ccccc2nc1OC(C1CCN(C)CC1)C(F)(F)F (stereo not drawn) [Compound 326, N-{3-[2,2,2-trifluoro-1-(1-methylpiperidin-4-yl)ethoxy]-quinoxalin-2-yl}propane-1-sulfonamide]
17 | 1000 to 10000 nM | CCCNS(=O)(=O)Nc1nc2ccccc2nc1OC(C1CCN(C)CC1)C(F)(F)F (stereo not drawn) [Compound 328, N-propyl-N′-{3-[2,2,2-trifluoro-1-(1-methylpiperidin-4-yl)ethoxy]quinoxalin-2-yl}sulfuric diamide]
18 | < 1000 nM | CCCS(=O)(=O)Nc1nc2ccccc2nc1OC(C1CCN(C(C)=O)CC1)C(F)(F)F (stereo not drawn) [Compound 330, N-{3-[2,2,2-trifluoro-1-(1-acetylpiperidin-4-yl)ethoxy]-quinoxalin-2-yl}propane-1-sulfonamide]

Row | IC50 | SMILES
19 | < 1000 nM | CCCS(=O)(=O)Nc1nc2ccccc2nc1OC(c1cncc(C)c1)C(F)(F)F (stereo not drawn) [Compound 331, N-{3-[2,2,2-trifluoro-1-(5-methylpyridin-3-yl)ethoxy]-quinoxalin-2-yl}propane-1-sulfonamide]
20 | < 1000 nM | CCCS(=O)(=O)Nc1nc2ccccc2nc1OC(c1cncc(F)c1)C(F)(F)F (stereo not drawn) [Compound 332, N-{3-[2,2,2-trifluoro-1-(5-fluoropyridin-3-yl)ethoxy]-quinoxalin-2-yl}propane-1-sulfonamide]
21 | < 1000 nM | CCCS(=O)(=O)Nc1nc2ccccc2nc1OC(c1cncc(OC)c1)C(F)(F)F (stereo not drawn) [Compound 334, N-{3-[2,2,2-trifluoro-1-(5-methoxypyridin-3-yl)ethoxy]-quinoxalin-2-yl}propane-1-sulfonamide]
22 | < 1000 nM | CCCS(=O)(=O)Nc1nc2ccccc2nc1OC(c1cncc(Cl)c1)C(F)(F)F (stereo not drawn) [Compound 335, N-{3-[2,2,2-trifluoro-1-(5-chloropyridin-3-yl)ethoxy]-quinoxalin-2-yl}propane-1-sulfonamide]
23 | < 1000 nM | CCCS(=O)(=O)Nc1nc2ccccc2nc1OC(C1CCN(S(C)(=O)=O)CC1)C(F)(F)F (stereo not drawn) [Compound 336, N-{3-[2,2,2-trifluoro-1-(1-methanesulfonylpiperidin-4-yl)-ethoxy]quinoxalin-2-yl}propane-1-sulfonamide]
24 | < 1000 nM | CCCS(=O)(=O)Nc1nc2ccccc2nc1OC(C1CCN(C(=O)OC)CC1)C(F)(F)F (stereo not drawn) [Compound 337, N-{3-[2,2,2-trifluoro-1-(1-methoxycarbonylpiperidin-4-yl)-ethoxy]quinoxalin-2-yl}propane-1-sulfonamide]
25 | < 1000 nM | CCCS(=O)(=O)Nc1nc2ccccc2nc1OC(C1CCN(C(=O)CC)CC1)C(F)(F)F (stereo not drawn) [Compound 340, N-{3-[2,2,2-trifluoro-1-(1-propionylpiperidin-4-yl)ethoxy]-quinoxalin-2-yl}propane-1-sulfonamide]
26 | < 1000 nM | CCCS(=O)(=O)Nc1nc2ccccc2nc1OC(C1CCN(C(=O)C2CC2)CC1)C(F)(F)F (stereo not drawn) [Compound 341, N-{3-[2,2,2-trifluoro-1-(1-cyclopropanecarbonylpiperidin-4-yl)ethoxy]quinoxalin-2-yl}propane-1-sulfonamide]
27 | < 1000 nM | CCCS(=O)(=O)Nc1nc2ccccc2nc1O[C@H](c1cnc(C)s1)C(F)(F)F [Compound 342, (S)—N-{3-[2,2,2-trifluoro-1-(2-methylthiazol-5-yl)ethoxy]-quinoxalin-2-yl}propane-1-sulfonamide]
28 | 1000 to 10000 nM | CCCS(=O)(=O)Nc1nc2ccccc2nc1O[C@@H](c1cnc(C)s1)C(F)(F)F [Compound 343, (R)—N-{3-[2,2,2-trifluoro-1-(2-methylthiazol-5-yl)ethoxy]-quinoxalin-2-yl}propane-1-sulfonamide]
29 | < 1000 nM | CCCS(=O)(=O)Nc1nc2ccccc2nc1OC(c1csc(C)n1)C(F)(F)F (stereo not drawn) [Compound 344, N-{3-[2,2,2-trifluoro-1-(2-methylthiazol-4-yl)ethoxy]-quinoxalin-2-yl}propane-1-sulfonamide]
30 | 1000 to 10000 nM | CCCS(=O)(=O)Nc1nc2ccccc2nc1OCc1cnc(C)s1 [Compound 345, N-{3-[(2-methylthiazol-5-yl)methoxy]quinoxalin-2-yl}-propane-1-sulfonamide]
31 | 1000 to 10000 nM | CCCS(=O)(=O)Nc1nc2ccccc2nc1O[C@@H](C1CCOCC1)C(F)(F)F [Compound 346, (S)—N-{3-[2,2,2-trifluoro-1-(tetrahydro-2H-pyran-4-yl)-ethoxy]quinoxalin-2-yl}propane-1-sulfonamide]
32 | < 1000 nM | CCCS(=O)(=O)Nc1nc2ccccc2nc1O[C@H](C1CCOCC1)C(F)(F)F [Compound 347, (R)—N-{3-[2,2,2-trifluoro-1-(tetrahydro-2H-pyran-4-yl)-ethoxy]quinoxalin-2-yl}propane-1-sulfonamide]
33 | < 1000 nM | CCCS(=O)(=O)Nc1nc2ccccc2nc1O[C@H](c1ccc(Cl)nc1)C(F)(F)F [Compound 348, (R)—N-{3-[2,2,2-trifluoro-1-(6-chloropyridin-3-yl)ethoxy]-quinoxalin-2-yl}propane-1-sulfonamide]
34 | < 1000 nM | CCCS(=O)(=O)Nc1nc2ccccc2nc1O[C@H](c1cccc(C#N)c1)C(F)(F)F [Compound 349, (R)—N-{3-[2,2,2-trifluoro-1-(3-cyanophenyl)ethoxy]-quinoxalin-2-yl}propane-1-sulfonamide]
35 | < 1000 nM | CCCS(=O)(=O)Nc1nc2ccccc2nc1OC(C(F)(F)F)C1(F)CCOCC1 (stereo not drawn) [Compound 350, N-{3-[2,2,2-trifluoro-1-(4-fluorotetrahydro-2H-pyran-4-yl)-ethoxy]quinoxalin-2-yl}propane-1-sulfonamide]
36 | < 1000 nM | CCCS(=O)(=O)Nc1nc2ccccc2nc1OC(C(F)(F)F)C1(C#N)CCOCC1 (stereo not drawn) [Compound 351, N-{3-[2,2,2-trifluoro-1-(4-cyanotetrahydro-2H-pyran-4-yl)-ethoxy]quinoxalin-2-yl}propane-1-sulfonamide]

Source: patent publication US8673908B2, “Kynurenine production inhibitor” (Kyowa Hakko Kirin Co., Ltd., priority 2008, dated 2014)
